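How tested: cells in 96-well plates exposed to compound for 48 hours at five concentrations. Here, GI50 denotes the concentration required for 50% inhibition of growth.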 The source made the active and inactive calls. Cut-off read from the data, not from the text of the source: active = GI50 up to about 1.1 µM and inactive = higher.
Columns and labels:
Experiment in all cases: growth of human tumour cells (NCI), 48 h
[1] = test system: A498
[2] = test system: A549
[3] = test system: ACHN
[4] = test system: BT-549
[5] = test system: CAKI-1
[6] = test system: CCRF-CEM
[7] = test system: COLO 205
[8] = test system: DU-145
[9] = test system: EKVX
[10] = test system: HCC 2998
[11] = test system: HCT-116
[12] = test system: HCT-15
[13] = test system: HL-60
[14] = test system: HOP-62
[15] = test system: HOP-92
[16] = test system: HT-29
[17] = test system: Hs-578T
[18] = test system: IGROV-1
[19] = test system: K562
[20] = test system: KM12
[21] = test system: LOX IMVI
[22] = test system: M14
[23] = test system: MCF7
[24] = test system: MDA-MB-231
[25] = test system: MDA-MB-435
[26] = test system: MDA-N
[27] = test system: MOLT-4
[28] = test system: Malme-3M
[29] = test system: NCI-H226
[30] = test system: NCI-H23
[31] = test system: NCI-H460
[32] = test system: NCI-H522
[33] = test system: OVCAR-3
[34] = test system: OVCAR-5
[35] = test system: PC-3
[36] = test system: RPMI-8226
[37] = test system: RXF 393
[38] = test system: SF-268
[39] = test system: SF-295
[40] = test system: SF-539
[41] = test system: SK-MEL-28
[42] = test system: SK-MEL-2
[43] = test system: SK-MEL-5
[44] = test system: SK-OV-3
[45] = test system: SN12C
[46] = test system: SNB-19
[47] = test system: SNB-75
[48] = test system: SR
[49] = test system: SW-620
[50] = test system: T47D
[51] = test system: TK-10
[52] = test system: U-251
[53] = test system: UACC-257
[54] = test system: UACC-62
[55] = test system: UO-31
[56] = test system: 786-0
[57] = test system: NCI/ADR-RES
[58] = test system: OVCAR-4
[59] = test system: OVCAR-8

COc1ccc(-c2c3c(nc4nc(SC)nc(SC)c24)CCCC3)cc1OC
GI50 [1]: > 100 µM (inactive) | GI50 [2]: > 100 µM (inactive) | GI50 [3]: 72.4 µM (inactive) | GI50 [4]: > 100 µM (inactive) | GI50 [5]: 67.9 µM (inactive) | GI50 [6]: 21.3 µM (inactive) | GI50 [7]: > 100 µM (inactive) | GI50 [8]: > 100 µM (inactive) | GI50 [9]: 70 µM (inactive) | GI50 [10]: > 100 µM (inactive) | GI50 [11]: 44.4 µM (inactive) | GI50 [12]: 16 µM | GI50 [13]: 25.1 µM (inactive) | GI50 [14]: 46.8 µM (inactive) | GI50 [15]: 40.2 µM (inactive) | GI50 [16]: 36.6 µM (inactive) | GI50 [17]: 19.1 µM (inactive) | GI50 [18]: > 100 µM (inactive) | GI50 [19]: 28.2 µM (inactive) | GI50 [20]: 81.3 µM (inactive) | GI50 [21]: 46.6 µM (inactive) | GI50 [22]: 81.7 µM (inactive) | GI50 [23]: 41.5 µM (inactive) | GI50 [24]: 40.6 µM (inactive) | GI50 [25]: 54.3 µM (inactive) | GI50 [26]: 29.9 µM (inactive) | GI50 [27]: 33.4 µM (inactive) | GI50 [28]: 42.5 µM (inactive) | GI50 [29]: 56.6 µM (inactive) | GI50 [30]: > 100 µM (inactive) | GI50 [31]: 29.2 µM (inactive) | GI50 [32]: 31.6 µM (inactive) | GI50 [33]: 65.5 µM (inactive) | GI50 [34]: > 100 µM (inactive) | GI50 [35]: 60 µM (inactive) | GI50 [36]: 45.8 µM (inactive) | GI50 [37]: 25.9 µM (inactive) | GI50 [38]: 82.2 µM (inactive) | GI50 [39]: 57.5 µM (inactive) | GI50 [40]: > 100 µM (inactive) | GI50 [41]: 59.7 µM (inactive) | GI50 [42]: 25.8 µM (inactive) | GI50 [43]: 80.2 µM (inactive) | GI50 [44]: > 100 µM (inactive) | GI50 [45]: > 100 µM (inactive) | GI50 [46]: > 100 µM (inactive) | GI50 [47]: 28.2 µM (inactive) | GI50 [48]: 8.07 µM (inactive) | GI50 [49]: 67.5 µM (inactive) | GI50 [50]: 47.6 µM (inactive) | GI50 [51]: 38.5 µM (inactive) | GI50 [52]: 70.3 µM (inactive) | GI50 [53]: > 100 µM (inactive) | GI50 [54]: 67.6 µM (inactive) | GI50 [55]: 37.1 µM (inactive)

CC(=O)O[C@H]1CC[C@]2(C=O)[C@H]3CC[C@]4(C)[C@@H](C5=CC(=O)OC5)CC[C@]4(O)[C@@H]3CC[C@]2(O)C1 [STROPHANTHIDIN ACETATE]
GI50 [56]: 0.212 µM (active) | GI50 [1]: 0.264 µM (active) | GI50 [2]: 0.0684 µM (active) | GI50 [3]: 0.047 µM (active) | GI50 [4]: 0.144 µM (active) | GI50 [5]: 0.0536 µM (active) | GI50 [6]: 0.0605 µM (active) | GI50 [7]: 0.378 µM (active) | GI50 [8]: 0.164 µM (active) | GI50 [9]: 0.225 µM (active) | GI50 [10]: 0.325 µM (active) | GI50 [11]: 0.11 µM (active) | GI50 [12]: 0.203 µM | GI50 [13]: 0.344 µM (active) | GI50 [14]: 0.226 µM (active) | GI50 [15]: 0.424 µM (active) | GI50 [16]: 0.212 µM (active) | GI50 [17]: 0.45 µM (active) | GI50 [18]: 0.31 µM (active) | GI50 [19]: 0.83 µM (active) | GI50 [20]: 0.692 µM (active) | GI50 [21]: 0.222 µM (active) | GI50 [22]: 0.416 µM (active) | GI50 [24]: 0.769 µM (active) | GI50 [25]: 0.272 µM (active) | GI50 [26]: 0.282 µM (active) | GI50 [27]: 0.0262 µM (active) | GI50 [28]: 0.231 µM (active) | GI50 [29]: 0.681 µM (active) | GI50 [30]: 0.111 µM (active) | GI50 [31]: 0.0578 µM (active) | GI50 [32]: 0.0336 µM (active) | GI50 [57]: 0.197 µM (active) | GI50 [33]: 0.0982 µM (active) | GI50 [58]: 0.0998 µM (active) | GI50 [34]: 0.575 µM (active) | GI50 [59]: 0.267 µM (active) | GI50 [35]: 0.264 µM (active) | GI50 [36]: 0.313 µM (active) | GI50 [38]: 0.171 µM (active) | GI50 [39]: 0.175 µM (active) | GI50 [40]: 0.13 µM (active) | GI50 [41]: 0.774 µM (active) | GI50 [42]: 0.324 µM (active) | GI50 [43]: 0.0923 µM (active) | GI50 [44]: 0.222 µM (active) | GI50 [45]: 0.42 µM (active) | GI50 [46]: 0.608 µM (active) | GI50 [47]: 0.601 µM (active) | GI50 [48]: 0.528 µM (active) | GI50 [49]: 0.264 µM (active) | GI50 [50]: 0.407 µM (active) | GI50 [51]: 0.211 µM (active) | GI50 [52]: 0.296 µM (active) | GI50 [53]: 0.362 µM (active) | GI50 [54]: 0.353 µM (active) | GI50 [55]: 0.23 µM (active)

CO/C(N)=C(C#N)/N=C/c1ccc2ccccc2c1
GI50 [56]: 78.5 µM (inactive) | GI50 [1]: 33 µM (inactive) | GI50 [2]: 77.6 µM (inactive) | GI50 [3]: 15.9 µM (inactive) | GI50 [4]: 18.5 µM (inactive) | GI50 [5]: 39.1 µM (inactive) | GI50 [6]: 24.8 µM (inactive) | GI50 [7]: 17.9 µM (inactive) | GI50 [8]: > 100 µM (inactive) | GI50 [9]: 64.3 µM (inactive) | GI50 [11]: 76.2 µM (inactive) | GI50 [13]: 3.61 µM (inactive) | GI50 [14]: 23.2 µM (inactive) | GI50 [15]: 34.5 µM (inactive) | GI50 [16]: 18.5 µM (inactive) | GI50 [17]: 46.7 µM (inactive) | GI50 [18]: 43.6 µM (inactive) | GI50 [19]: 4.72 µM (inactive) | GI50 [20]: 23.1 µM (inactive) | GI50 [21]: 33.2 µM (inactive) | GI50 [24]: 19.5 µM (inactive) | GI50 [25]: 7.1 µM (inactive) | GI50 [26]: 8.41 µM (inactive) | GI50 [27]: 30.6 µM (inactive) | GI50 [28]: > 100 µM (inactive) | GI50 [29]: > 100 µM (inactive) | GI50 [30]: > 100 µM (inactive) | GI50 [32]: > 100 µM (inactive) | GI50 [57]: 13 µM (inactive) | GI50 [33]: 24.2 µM (inactive) | GI50 [59]: 72.3 µM (inactive) | GI50 [35]: 19.9 µM (inactive) | GI50 [36]: 17.1 µM (inactive) | GI50 [37]: > 100 µM (inactive) | GI50 [38]: > 100 µM (inactive) | GI50 [39]: 33.2 µM (inactive) | GI50 [41]: > 100 µM (inactive) | GI50 [42]: 31.1 µM (inactive) | GI50 [43]: 13 µM (inactive) | GI50 [44]: 82.6 µM (inactive) | GI50 [45]: > 100 µM (inactive) | GI50 [47]: 78.9 µM (inactive) | GI50 [48]: 27.6 µM (inactive) | GI50 [49]: > 100 µM (inactive) | GI50 [50]: 8.73 µM (inactive) | GI50 [51]: > 100 µM (inactive) | GI50 [52]: 30.8 µM (inactive) | GI50 [53]: 7.52 µM (inactive) | GI50 [54]: 3.06 µM (inactive) | GI50 [55]: 58.2 µM (inactive)

O=C1Cc2c(-c3ccccc3)cc(-c3ccccc3)nc2-c2ccccc2N1
GI50 [1]: 20 µM (inactive) | GI50 [2]: 5.61 µM (inactive) | GI50 [4]: 6.01 µM (inactive) | GI50 [5]: 3.64 µM (inactive) | GI50 [6]: 17.2 µM (inactive) | GI50 [7]: 2.21 µM (inactive) | GI50 [8]: 5.82 µM (inactive) | GI50 [9]: 13.2 µM (inactive) | GI50 [10]: 2.71 µM (inactive) | GI50 [11]: 2.24 µM (inactive) | GI50 [12]: 1.57 µM | GI50 [13]: 75.9 µM (inactive) | GI50 [14]: 2.64 µM (inactive) | GI50 [15]: 21.3 µM (inactive) | GI50 [16]: 3.61 µM (inactive) | GI50 [17]: 4.07 µM (inactive) | GI50 [18]: 18.6 µM (inactive) | GI50 [19]: 8.02 µM (inactive) | GI50 [20]: 2.84 µM (inactive) | GI50 [21]: 4.37 µM (inactive) | GI50 [22]: 3.44 µM (inactive) | GI50 [24]: 3.48 µM (inactive) | GI50 [25]: 15.9 µM (inactive) | GI50 [26]: > 10 µM (inactive) | GI50 [28]: 9.79 µM (inactive) | GI50 [29]: 5.5 µM (inactive) | GI50 [30]: 6.65 µM (inactive) | GI50 [31]: 4.01 µM (inactive) | GI50 [32]: 7.18 µM (inactive) | GI50 [57]: 3.61 µM (inactive) | GI50 [33]: 5.56 µM (inactive) | GI50 [34]: 3.54 µM (inactive) | GI50 [59]: 3.56 µM (inactive) | GI50 [35]: 8.69 µM (inactive) | GI50 [36]: 39.7 µM (inactive) | GI50 [37]: 4.61 µM (inactive) | GI50 [38]: 5.7 µM (inactive) | GI50 [39]: 3.17 µM (inactive) | GI50 [40]: 11 µM (inactive) | GI50 [41]: 5.12 µM (inactive) | GI50 [42]: 2.66 µM (inactive) | GI50 [43]: 2.38 µM (inactive) | GI50 [44]: 5.22 µM (inactive) | GI50 [45]: 4.04 µM (inactive) | GI50 [46]: 2.78 µM (inactive) | GI50 [47]: 2.59 µM (inactive) | GI50 [49]: 5.47 µM (inactive) | GI50 [50]: 10.9 µM (inactive) | GI50 [52]: 3.09 µM (inactive) | GI50 [53]: 19.6 µM (inactive) | GI50 [54]: 6.89 µM (inactive) | GI50 [55]: 3.71 µM (inactive)
